In ChEMBL document CHEMBL1128688, “Synthesis and biological evaluation of a series of substituted benzo[a]phenanthridines as agonists at D1 and D2 dopamine receptors” (J Med Chem, 1995):

Columns and labels:
[1] = biological target: D(2) dopamine receptor (Rattus norvegicus) (UniProt P61169); experiment: Binding affinity for Dopamine receptor D2 of rat striatal homogenate
[2] = biological target: D(1A) dopamine receptor (Rattus norvegicus) (UniProt P18901); experiment: Binding affinity for dopamine receptor D1 in rat striatal homogenate
Sequence of D(1A) dopamine receptor (Rattus norvegicus) (P18901 whole entry): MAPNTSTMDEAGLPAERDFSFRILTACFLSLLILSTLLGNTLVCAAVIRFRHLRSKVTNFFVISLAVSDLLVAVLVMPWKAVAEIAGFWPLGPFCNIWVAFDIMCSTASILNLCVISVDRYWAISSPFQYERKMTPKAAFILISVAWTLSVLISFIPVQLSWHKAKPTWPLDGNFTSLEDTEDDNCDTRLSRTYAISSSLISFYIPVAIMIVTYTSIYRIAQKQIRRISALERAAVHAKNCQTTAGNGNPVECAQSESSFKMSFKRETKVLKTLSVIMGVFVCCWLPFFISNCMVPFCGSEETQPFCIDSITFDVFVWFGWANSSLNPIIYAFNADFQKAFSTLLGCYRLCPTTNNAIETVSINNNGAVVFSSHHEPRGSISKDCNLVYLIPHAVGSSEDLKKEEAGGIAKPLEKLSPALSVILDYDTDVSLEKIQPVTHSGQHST

[3] = biological target: Adenylate cyclase type 5 (Rattus norvegicus) (UniProt Q04400); experiment: Intrinsic activity measured as ability to stimulate dopamine sensitive Adenylate cyclase activity was measured in rat striatum.; type: functional, tissue-based
Sequence of Adenylate cyclase type 5 (Rattus norvegicus) (Q04400 whole entry): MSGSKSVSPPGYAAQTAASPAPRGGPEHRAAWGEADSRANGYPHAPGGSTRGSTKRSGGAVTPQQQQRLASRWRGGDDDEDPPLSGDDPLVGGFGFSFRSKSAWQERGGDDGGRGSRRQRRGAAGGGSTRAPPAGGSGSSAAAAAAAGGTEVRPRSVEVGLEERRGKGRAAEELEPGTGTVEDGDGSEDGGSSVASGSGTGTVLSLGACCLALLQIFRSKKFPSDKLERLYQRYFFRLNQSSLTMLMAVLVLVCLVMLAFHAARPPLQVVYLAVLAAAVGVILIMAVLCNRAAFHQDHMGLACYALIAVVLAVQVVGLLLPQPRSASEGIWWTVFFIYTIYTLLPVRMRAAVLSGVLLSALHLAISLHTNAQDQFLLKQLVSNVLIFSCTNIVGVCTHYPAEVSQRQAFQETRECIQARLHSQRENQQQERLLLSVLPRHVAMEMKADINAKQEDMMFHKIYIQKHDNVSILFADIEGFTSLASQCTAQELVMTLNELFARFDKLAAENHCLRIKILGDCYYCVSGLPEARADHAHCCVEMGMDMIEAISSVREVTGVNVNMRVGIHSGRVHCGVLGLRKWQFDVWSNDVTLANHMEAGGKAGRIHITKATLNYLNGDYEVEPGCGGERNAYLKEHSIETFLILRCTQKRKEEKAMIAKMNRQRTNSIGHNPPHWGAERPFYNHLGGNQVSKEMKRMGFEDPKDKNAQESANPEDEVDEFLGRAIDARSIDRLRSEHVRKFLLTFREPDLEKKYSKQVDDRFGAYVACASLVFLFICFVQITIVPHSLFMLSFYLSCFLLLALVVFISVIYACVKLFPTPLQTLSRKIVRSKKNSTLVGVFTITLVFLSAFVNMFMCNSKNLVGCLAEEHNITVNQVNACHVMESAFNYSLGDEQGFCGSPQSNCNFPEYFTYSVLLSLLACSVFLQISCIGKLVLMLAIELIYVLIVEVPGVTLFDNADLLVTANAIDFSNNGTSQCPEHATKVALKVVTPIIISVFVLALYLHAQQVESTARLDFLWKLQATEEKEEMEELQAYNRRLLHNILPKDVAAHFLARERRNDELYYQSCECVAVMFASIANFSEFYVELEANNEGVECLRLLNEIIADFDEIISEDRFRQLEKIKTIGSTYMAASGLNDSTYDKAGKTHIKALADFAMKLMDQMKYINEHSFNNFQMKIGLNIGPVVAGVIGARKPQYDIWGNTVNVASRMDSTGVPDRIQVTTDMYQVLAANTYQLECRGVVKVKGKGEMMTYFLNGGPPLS

[4] = biological target: Dopamine receptors; D1 & D2 (Rattus norvegicus) (UniProt P18901+P61169); experiment: Relative binding affinity for dopamine receptors D1 and D2 in rat striatal homogenates

Sequence of D(2) dopamine receptor (Rattus norvegicus) (P61169 whole entry): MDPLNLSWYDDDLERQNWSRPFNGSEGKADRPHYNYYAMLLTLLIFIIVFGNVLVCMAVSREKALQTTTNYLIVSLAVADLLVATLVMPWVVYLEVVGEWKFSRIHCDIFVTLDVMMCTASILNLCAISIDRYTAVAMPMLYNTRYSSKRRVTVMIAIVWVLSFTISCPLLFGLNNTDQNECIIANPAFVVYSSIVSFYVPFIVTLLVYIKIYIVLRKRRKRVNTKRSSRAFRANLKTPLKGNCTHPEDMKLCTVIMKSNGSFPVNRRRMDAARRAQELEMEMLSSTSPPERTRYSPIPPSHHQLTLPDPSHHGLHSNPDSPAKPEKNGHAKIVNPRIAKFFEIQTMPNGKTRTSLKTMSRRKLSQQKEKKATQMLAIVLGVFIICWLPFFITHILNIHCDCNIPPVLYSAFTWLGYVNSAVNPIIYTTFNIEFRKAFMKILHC

Row | Compound | K0.5 [1] | K0.5 [2] | Intrinsic activity [3] | Selectivity [4]
1 | CCc1ccc2c(c1)[C@@H]1c3cc(O)c(O)cc3CC[C@H]1NC2 | 423 nM | 29.2 nM | 103% | 14.5
2 | CCCN1Cc2c(C)cccc2[C@@H]2c3cc(O)c(O)cc3CC[C@H]21 | 9.01 nM | 23.4 nM | 89% | –
3 | Cc1ccc2c(c1)[C@@H]1c3cc(O)c(O)cc3CC[C@H]1NC2 | – | 8.66 nM | 91% | –
4 | Oc1cc2c(cc1O)[C@H]1c3ccccc3CN[C@@H]1CC2 | – | – | 95% | –
5 | Cc1cccc2c1CN[C@@H]1CCc3cc(O)c(O)cc3[C@@H]21 | 18 nM | 6.58 nM | 80% | 2.7
6 | Oc1ccc2c(c1)[C@@H]1c3cc(O)c(O)cc3CC[C@H]1NC2 | 194 nM | 18.8 nM | 95% | 10.3
7 | O=c1[nH]c2ccccc2n1CCCN1CCC(n2c(=O)[nH]c3cc(Cl)ccc32)CC1 | 1 nM | > 1000 nM | – | < 1000
8 | Oc1cc2c(cc1O)[C@H]1c3cc(-c4ccccc4)ccc3CN[C@@H]1CC2 | 90.2 nM | 187 nM | 60% | 0.5
9 | Oc1ccc2c(c1)CN[C@@H]1CCc3cc(O)c(O)cc3[C@@H]21 | 53.6 nM | 12.2 nM | 104% | 4.4
10 | Cc1ccc2c(c1)CN[C@@H]1CCc3cc(O)c(O)cc3[C@@H]21 | 18 nM | 5.06 nM | 105% | 3.6
11 | CN1CCc2cc(Cl)c(O)cc2[C@@H](c2ccccc2)C1 | > 500 nM | – | – | –
12 | CCCN1Cc2cc(C)ccc2[C@@H]2c3cc(O)c(O)cc3CC[C@H]21 | 29.4 nM | 181 nM | 20% | 0.16
13 | CCCN1Cc2ccccc2[C@@H]2c3cc(O)c(O)cc3CC[C@H]21 | 25.7 nM | 180 nM | 40% | –
